Measurements taken from patent US20260041617A1, “COSMETIC COMPOSITION APPLICABLE TO THE SKIN AND BASED ON A VOLATILE MIXTURE OF ALKANES” (BIOSYNTHIS, priority 2022, published 2026).

Test: Biodegradability by OECD 301F method (manometric respirometry test)
Method: For the purposes of the present invention, the OECD 301F method makes it possible to assess the biodegradability of a substance by a manometric respirometry test.
The biodegradability of a volatile mixture of alkanes used in the cosmetic compositions applicable to the skin according to the invention was measured according to the OECD 301F method. For comparison, the degradation of isododecane (CAS 13475-82-6) was also measured with this method.
The OECD 301F method is used to characterize the ease of biodegradation of a substance by a manometric respirometry test.

With `CC(CC(C)(C)C)CC(C)(C)C` [Isododecane (CAS 13475-82-6), 2,2,4,6,6-pentamethylheptane] the “Percentage of degradation according to the OECD 301F method” value was 0% and the “biodegradable according to the OECD 301F method” value (result in words) was “not biodegradable”.
